Reference: US20060210480A1, “Treatment of reduction of dysphagia” (priority 2005, published 2006)

Legend:
swallowing response [1] = assay: Ten-minute infusion of taste stimuli onto the taste receptors of the tongue; pharyngeal MEP (Example 2); assay type: in vivo, human; conditions: volunteers; ten minute infusion to tongue taste receptors; taken over a 60 minute period from administration
Description: Confirmation of the suitability of […] tasting substances such as the alkaloid quinine to stimulate the swallowing response and thereby aid treatment or reduction of dysphagia was obtained from a second study measuring swallowing reflexes of volunteers receiving neutral, pleasant or aversive taste stimuli. Volunteers receive a ten minute infusion of neutral (water), pleasant (glucose) or aversive (quinine) taste stimuli administered such that they stimulated the taste receptors of the tongue.

swallowing response [2] = assay: Ten-minute infusion of taste stimuli directly into the stomach; pharyngeal MEP (Example 3); assay type: in vivo, human; conditions: volunteers; ten minute infusion administered directly to the stomach
Description: The ability of substances such as the […] tasting alkaloid quinine to stimulate the swallowing response when administered into the portion of the upper digestive tract below the mouth was in a third study measuring swallowing reflexes of volunteers receiving neutral, pleasant or aversive taste stimuli. Volunteers receive a ten minute infusion of neutral (water), pleasant (glucose) or aversive (quinine) taste stimuli administered directly into the volunteer's stomach.

[3] = test system: human cortical swallowing pathways; assay: Ten-minute liquid swallowing task with taste solutions; TMS-evoked cortico-pharyngeal motor responses (Example 1); assay type: in vivo; conditions: 8 healthy adult volunteers; 0.5 mM quinine hydrochloride swallowing task; immediately and throughout 60 minutes post-intervention; p<0.01
Description: An assessment was made as to the effects of different taste stimuli on human cortical swallowing pathways. The assessment was made upon 8 healthy adult volunteers (seven of which were male, the minimum age of the volunteers being 29 years).
Each volunteer performed a ten-minute, liquid swallowing task using three (previously titrated) different taste solutions. The three solutions utilised were sterile water (neutral taste), 10% glucose (sweet/pleasant taste), and 0.5 mM quinine hydrochloride (bitter/aversive taste). Solutions were randomised to separate studies at least 24 hours apart.
Transcranial magnetic stimulation was performed over the swallowing motor cortex, before and up to one hour after each swallow task in accordance with established protocols. Briefly, Single pulse (monophasic) transcranial stimulation (sTMS) of the cerebral cortex was achieved using a magnetic stimulator (a Magstim 200, manufactured by MAGSTIM Company Limited, Whitland, Wales) connected to a 70 mm outer diameter figure-of-8 coil (maximal output of 2.2 Tesla (T)), held in an A-P (Anterior-Posterior) direction, at an angle of 45° tangential to the scalp. […]
Cortico-pharyngeal motor responses were recorded from a swallowed intra-luminal catheter as a measure of cortical excitability. […]

SMILES: C=C[C@H]1C[N@@]2CC[C@H]1C[C@H]2[C@H](O)c1ccnc2ccc(OC)cc12 [quinine]
- increase in the amplitude of MEP compared with neutral tasting water or pleasant tasting glucose (swallowing response [1]): greater increase
- increase in the swallowing response (measured by MEP) (swallowing response [2]): 39%
- maximum percentage change from base line in pharyngeal motor evoked potential (MEP) amplitude [3]: 48±11%
